Measured values from ChEMBL document CHEMBL3108715, “Pan-histone demethylase inhibitors simultaneously targeting Jumonji C and lysine-specific demethylases display high anticancer activities” (J Med Chem, 2014).
The source made the active and inactive calls. The rule behind the calls is not given here.

What was measured:
[1] = biological target: T1, Lysine-specific demethylase 4E (Homo sapiens, UniProt B2RXH2)
T1 sequence (B2RXH2 whole entry): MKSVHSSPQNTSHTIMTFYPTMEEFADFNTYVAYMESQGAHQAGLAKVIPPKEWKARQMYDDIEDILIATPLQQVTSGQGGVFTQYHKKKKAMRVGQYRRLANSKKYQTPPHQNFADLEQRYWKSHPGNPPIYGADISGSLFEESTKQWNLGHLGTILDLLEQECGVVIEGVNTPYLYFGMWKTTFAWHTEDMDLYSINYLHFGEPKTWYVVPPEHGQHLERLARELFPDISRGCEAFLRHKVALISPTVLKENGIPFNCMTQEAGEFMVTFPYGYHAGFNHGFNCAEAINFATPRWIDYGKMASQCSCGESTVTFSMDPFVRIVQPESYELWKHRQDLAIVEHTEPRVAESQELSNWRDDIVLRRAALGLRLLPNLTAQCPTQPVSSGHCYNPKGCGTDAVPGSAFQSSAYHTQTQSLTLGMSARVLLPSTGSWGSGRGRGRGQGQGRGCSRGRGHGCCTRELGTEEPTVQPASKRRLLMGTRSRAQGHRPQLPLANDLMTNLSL
Description: Inhibition of recombinant JMJD2E (unknown origin) incubated for 15 mins prior to substrate addition by AlphaScreen method

[2] = biological target: T2, Lysine-specific demethylase 3A (Homo sapiens, UniProt Q9Y4C1)
T2 sequence (Q9Y4C1 whole entry): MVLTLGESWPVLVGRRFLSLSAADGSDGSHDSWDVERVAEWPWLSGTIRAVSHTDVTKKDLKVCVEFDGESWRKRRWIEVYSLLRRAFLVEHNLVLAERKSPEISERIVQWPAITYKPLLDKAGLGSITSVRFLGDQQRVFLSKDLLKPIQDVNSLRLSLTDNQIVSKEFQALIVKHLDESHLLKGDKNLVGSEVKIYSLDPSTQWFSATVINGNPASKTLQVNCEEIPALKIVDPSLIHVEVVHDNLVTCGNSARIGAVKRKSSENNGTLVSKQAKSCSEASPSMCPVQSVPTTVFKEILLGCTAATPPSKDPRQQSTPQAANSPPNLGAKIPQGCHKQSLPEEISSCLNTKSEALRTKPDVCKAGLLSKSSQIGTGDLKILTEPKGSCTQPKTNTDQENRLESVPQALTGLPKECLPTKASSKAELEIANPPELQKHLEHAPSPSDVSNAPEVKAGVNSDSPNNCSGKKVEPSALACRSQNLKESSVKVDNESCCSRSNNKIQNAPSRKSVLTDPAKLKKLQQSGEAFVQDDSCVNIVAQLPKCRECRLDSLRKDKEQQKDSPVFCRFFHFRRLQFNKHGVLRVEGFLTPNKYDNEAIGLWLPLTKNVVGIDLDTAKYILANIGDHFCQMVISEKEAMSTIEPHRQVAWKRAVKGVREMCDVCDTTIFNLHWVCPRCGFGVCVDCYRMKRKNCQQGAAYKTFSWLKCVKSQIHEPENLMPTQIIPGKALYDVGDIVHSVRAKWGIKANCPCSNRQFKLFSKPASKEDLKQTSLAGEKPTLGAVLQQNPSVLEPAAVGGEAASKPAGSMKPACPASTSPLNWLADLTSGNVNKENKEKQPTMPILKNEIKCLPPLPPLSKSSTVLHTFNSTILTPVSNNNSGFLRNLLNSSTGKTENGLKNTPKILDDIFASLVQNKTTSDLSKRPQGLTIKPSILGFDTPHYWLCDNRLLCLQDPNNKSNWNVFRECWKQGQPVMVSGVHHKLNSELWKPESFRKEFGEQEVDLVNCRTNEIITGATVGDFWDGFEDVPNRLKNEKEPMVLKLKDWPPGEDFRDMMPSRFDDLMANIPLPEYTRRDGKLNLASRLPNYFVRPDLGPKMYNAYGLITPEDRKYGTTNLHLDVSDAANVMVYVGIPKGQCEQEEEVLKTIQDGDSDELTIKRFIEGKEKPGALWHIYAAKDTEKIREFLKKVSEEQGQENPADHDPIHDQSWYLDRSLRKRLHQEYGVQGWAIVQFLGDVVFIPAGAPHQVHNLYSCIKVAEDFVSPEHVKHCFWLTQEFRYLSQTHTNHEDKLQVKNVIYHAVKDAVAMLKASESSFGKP
Description: Inhibition of recombinant JMJD1A (unknown origin) incubated for 15 mins prior to substrate addition by AlphaScreen method

LNCaP [3] = experiment: Cell cycle arrest in human LNCAP cells assessed as accumulation at pre-G1 phase at 50 uM after 30 hrs by propidium iodide staining-based FACS analysis; assay type: functional
[4] = biological target: T3, Amine oxidase [flavin-containing] A (Homo sapiens, UniProt P21397)
T3 sequence (P21397 whole entry): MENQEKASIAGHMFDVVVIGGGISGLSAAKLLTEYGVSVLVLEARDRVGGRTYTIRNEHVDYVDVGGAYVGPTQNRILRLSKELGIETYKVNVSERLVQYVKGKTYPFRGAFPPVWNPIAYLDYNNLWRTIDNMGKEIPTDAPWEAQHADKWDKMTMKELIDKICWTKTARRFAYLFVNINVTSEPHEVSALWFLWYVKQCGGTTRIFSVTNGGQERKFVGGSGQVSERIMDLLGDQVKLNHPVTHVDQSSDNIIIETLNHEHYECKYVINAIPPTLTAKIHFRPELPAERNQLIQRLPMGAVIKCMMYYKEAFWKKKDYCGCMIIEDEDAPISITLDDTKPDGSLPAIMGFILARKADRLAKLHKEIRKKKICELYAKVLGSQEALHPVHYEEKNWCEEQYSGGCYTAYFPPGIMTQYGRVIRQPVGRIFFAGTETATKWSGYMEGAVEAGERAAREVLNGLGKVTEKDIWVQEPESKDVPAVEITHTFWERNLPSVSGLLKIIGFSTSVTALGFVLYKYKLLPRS
Description: Inhibition of human recombinant MAO-A expressed in Pichia pastoris using kynuramine as substrate after 5 mins

[5] = biological target: T4, Amine oxidase [flavin-containing] B (Homo sapiens, UniProt P27338)
T4 sequence (P27338 whole entry): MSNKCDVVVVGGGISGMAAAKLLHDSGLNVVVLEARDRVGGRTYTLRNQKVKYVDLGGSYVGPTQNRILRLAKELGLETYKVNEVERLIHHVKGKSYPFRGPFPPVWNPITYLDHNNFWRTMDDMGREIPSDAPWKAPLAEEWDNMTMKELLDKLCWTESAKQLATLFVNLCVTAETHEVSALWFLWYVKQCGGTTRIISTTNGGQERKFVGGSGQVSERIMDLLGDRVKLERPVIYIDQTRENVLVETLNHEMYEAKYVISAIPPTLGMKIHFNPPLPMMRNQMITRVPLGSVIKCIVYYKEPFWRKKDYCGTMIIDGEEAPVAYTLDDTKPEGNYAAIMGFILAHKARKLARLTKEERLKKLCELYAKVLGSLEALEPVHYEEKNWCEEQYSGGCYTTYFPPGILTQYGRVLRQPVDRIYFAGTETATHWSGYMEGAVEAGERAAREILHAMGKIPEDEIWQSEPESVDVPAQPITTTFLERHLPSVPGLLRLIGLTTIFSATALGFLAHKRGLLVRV
Description: Inhibition of human recombinant MAO-B expressed in Pichia pastoris using benzylamine as substrate after 5 mins

LNCaP [6] = experiment: Cell cycle arrest in human LNCAP cells assessed as accumulation at G1 phase at 50 uM after 30 hrs by propidium iodide staining-based FACS analysis; assay type: functional

| SMILES | IC50 [1] [µM] | IC50 [2] [µM] | Activity (LNCaP [3]) | IC50 [4] [µM] | IC50 [5] [µM] | Activity (LNCaP [6]) |
| --- | --- | --- | --- | --- | --- | --- |
| COC(=O)c1ccnc(-c2cc(C(=O)O)ccn2)c1 | 5 | 1.1 | – | – | – | – |
| Cl.N[C@@H]1C[C@H]1c1ccc(NC(=O)c2ccc(O)c3ncccc23)cc1 (relative stereo) | 3.9 | 31 | Active | 8.9 | 81 | >=90% |
| N[C@H]1C[C@@H]1c1ccc(NC(=O)CCCNC(=O)c2ccc(O)c3ncccc23)cc1 (relative stereo) | 5.5 | 12 | – | – | – | – |
| N[C@H]1C[C@@H]1c1ccc(NC(=O)CCCCNC(=O)c2ccc(O)c3ncccc23)cc1 (relative stereo) | 3.5 | 9.7 | – | – | – | – |
| Cl.N[C@H]1C[C@@H]1c1ccc(NC(=O)CCCCCNC(=O)c2ccc(O)c3ncccc23)cc1 (relative stereo) | 5.1 | 9.1 | Active | – | – | >=90% |
| N[C@@H]1C[C@H]1c1ccc(NC(=O)c2ccnc(-c3cc(C(=O)O)ccn3)c2)cc1 (relative stereo) | 0.42 | 0.14 | – | 35.4 | 47 | – |
| COC(=O)c1ccnc(-c2cc(C(=O)Nc3ccc([C@@H]4C[C@H]4N)cc3)ccn2)c1.Cl (relative stereo) | 16 | 37 | Active | < 1 | 43.3 | >=90% |
